One data set relates to GEO cells. Put plainly: Soft agar growth of GEO cells, antisense MBO in combination with cytotoxic drugs. The conditions noted are these: for growth inhibition: soft agar; for growth inhibitory effect in combination with cytotoxic drugs: GEO cells on soft agar, all doses, with each of cisplatin, doxorubicin, paclitaxel, topotecan (FIGS. 5, 6). Format: cell-based, human. The procedure: FIG. 5A is a graphic representation showing the growth inhibitory effects of AS23 (0.01 μM, […], 0.1 μM) in combination with cisplatin on the growth of CEO cells in soft agar. Cells were treated with the indicated concentrations of cytotoxic drug on day 1, followed by the indicated concentrations of EGFR-AS oligonucleotide on each day from day 2 to day 4. Colonies were counted after 10 to 14 days. Data represent the average (±standard deviation) of three different experiments, each performed in triplicate.
The invention also provides a method of potentiating the growth inhibitory effect of a cytotoxin on a cancer cell. In this method, the cell is contacted with an oligonucleotide of the invention, as well as the cytotoxin. For example, the growth inhibitory effects of AS23 and AS24 on cancer cells were examined in combination with four different cytotoxins: cisplatin, doxorubicin, paclitaxel, and topotecan. […] When lower doses of these agents were used, the antiproliferative effect was clearly cooperative. […] The cooperativity quotient of this treatment, defined as the ratio between the actual growth inhibition obtained with cisplatin followed by AS23 MBO and the sum of the growth inhibition achieved by each agent, was approximately 1.8.
Cells (10^4 cells/well) were suspended in 0.5 ml of 0.3% Difco Noble agar (Difco, Detroit, Mich.) supplemented with complete culture medium. This suspension was layered over 0.5 ml of 0.8% agar-medium base layer in 24 multiwell cluster dishes (Becton Dickinson, Lincoln Park, N.J.) and treated on days 1, 2 and 3 with different concentrations of the various EGFR-AS oligonucleotides alone and/or in combination on day 1 with the indicated concentrations of cytotoxic drugs. After 10 to 14 days, cells were stained with nitro blue tetrazolium (Sigma, St. Louis, Mo.) and colonies larger than 0.05 mm were counted.

In data set [1] the test system is human GEO colon cancer cells. Nature of the data set: Soft agar (anchorage-independent) colony growth of GEO cells. The conditions noted are these: read-out: IC50, inhibition of GEO cell soft agar growth. The format is cell-based. The procedure: Antisense oligonucleotides having SEQ ID NOS: 1-10 were designed and evaluated for the ability to inhibit the anchorage-independent growth of human GEO colon cancer cells. Human cancer cells useful for this study are GEO cells.
The IC50 determined by treatment with these antisense oligonucleotides varied between 0.1 and 0.7 μM. Based on the nucleotide sequence and on the growth inhibitory activity, two sequences (corresponding to AS14 (SEQ 10 NO: 14) and AS22 (SEQ ID NO: 22)) were modified in their backbone structure as hybrid DNA-RNA 20-mer oligonucleotides (AS23 (SEQ ID NO: 23)) and AS24 (SEQ ID NO: 24)) and further characterized for their biological characteristics. GEO cells were grown as colonies in soft agar and treated with different concentrations of the indicated antisense oligonucleotides. IC50 values were obtained from three different experiments, each performed in triplicate.
GEO human colon cancer, OVCAR-3 human ovarian cancer, and ZR-75-1 human breast cancer cell lines were obtained from the American Type Culture Collection, Manassas, Va. (OVCAR, ATCC No. HTB-161; ZR-75-1, ATCC No. CRL-1500). […]
Cells (10^4 cells/well) were suspended in 0.5 ml of 0.3% Difco Noble agar (Difco, Detroit, Mich.) supplemented with complete culture medium. […] After 10 to 14 days, cells were stained with nitro blue tetrazolium (Sigma, St. Louis, Mo.) and colonies larger than 0.05 mm were counted.

Another data set deals with EGFR. Nature of the data set: Western blot of EGFR expression in GEO cells. Format: cell-based, human. To be noted: GEO cells treated three days at 0.1 μM or 0.5 μM, compared to scramble oligonucleotide-treated cells (FIG. 1B). The procedure:
FIG. 1A is a representation of a Western blot showing EGFR expression in GEO cancer cells following treatment with EGFR antisense oligonucleotides. GEO cells were treated for three days with 0.5 μM of the indicated oligonucleotides (AS 5, 6, 7, 8, 9, 10), 0.5 μM, or with 0.5 μM scramble sequence oligonucleotides. Equal amounts (50 μg/lane) of protein extracts were resolved by a 7.5% SDS-PAGE and probed with an anti-human EGFR monoclonal antibody. Immunoreactive proteins were visualized by enhanced chemiluminescence.
FIG. 1B is a representation of a Western blot showing EGFR expression in CEO cells following treatment with EGFR antisense oligonucleotides. GEO cells were treated for three days with AS23 and AS24 oligonucleotides (0.1 or 0.5 μM), respectively; or with 0.5 μM of scramble sequence oligonucleotides. Equal amounts (50 μg/lane) of protein extracts were resolved by a 7.5% SDS-PAGE and probed with an anti-human EGFR monoclonal antibody. Immunoreactive proteins were visualized by enhanced chemiluminescence. […]

In data set [2] the test system is p27. Put plainly: Western blot of p27 expression in GEO cells. The conditions noted are these: three days, 0.1 and 0.5 μM (FIG. 3A). Format: cell-based, human. The procedure: (§1) Equal amounts (50 μg/lane) of protein extracts were resolved by a 12% SDS-PAGE and probed with an anti-human p27 MAb. Immunoreactive proteins were visualized by enhanced chemiluminescence.
(§2) The ability of EGFR antisense treatment to induce p27 was therefore examined.
(§3) 50 μg total cell lysates from GEO cells, which were treated each day for three days with the indicated concentrations of antisense oligonucleotides, were fractionated through 7.5% or 12% sodium dodecyl sulfate-polyacrylamide gels, transferred to nitrocellulose filters and incubated with an anti-human EGFR mouse MAb or with an anti-human p27 mouse MAb (both antibodies were purchased from Transduction Laboratories, Lexington, Ky.), respectively, followed by horseradish-peroxidase antiserum (Bio-Rad Laboratories, Milano, Italy). Immunoreactive proteins were visualized by enhanced chemiluminescence (Amersham International, England).

For data set [3], the system named is p27. Nature of the data set: Western blot of p27 expression in ZR-75-1 cells. The conditions noted are these: three days, 0.1 and 0.5 μM (FIG. 3B). The format is cell-based, human. As to the method:
as §1, §2, §3

The record followed here is patent US7671035B2, “Epidermal growth factor receptor antisense oligonucleotides” (Idera Pharmaceuticals, Inc., priority 2001, dated 2010).

pIC50: −log10 of the molar value. In the oligonucleotide strings, read from the 5' end, every base follows the letter of its sugar. An asterisk marks phosphorothioate; unmarked linkages are phosphodiester. Other units and linkages are bracketed, terminal groups are in braces. A string of capitals states the bases alone. d = 2'-deoxy (DNA)

`N.N.[Cl][Pt][Cl]` [cisplatin, CIS-diamminedichloroplatinum, reference compound]: in the data set with GEO cells (GEO cells, 0.25 μg/ml cisplatin alone), the growth inhibition result was “approximately 20%”.
On to “ACACTGCCTGAGAGTTGCCC (antisense dA*dC*dA*dC*dT*dG*dC*dC*dT*dG*dA*dG*dA*dG*dT*dT*dG*dC*dC*dC) [AS1]”, for which, in data set [1], the negative-log IC50 (pIC50) is about 5.46.
Regarding “CTCTTCTTGACAGTCTGATG (antisense dC*dT*dC*dT*dT*dC*dT*dT*dG*dA*dC*dA*dG*dT*dC*dT*dG*dA*dT*dG) [AS10]”, the negative-log IC50 (pIC50) in data set [1] was about 6.30.
Consider “UAUGATCTGTCACAGCUUGA (phosphorothioate linkages, 2'-O-methyl ribonucleosides, further chemistry not given here) [AS23]”, for which, in the data set with EGFR, the “EGFR protein expression (Western blot)” value is listed as “almost complete inhibition”. Besides, the “p27 expression (Western blot)” value in the data set on p27 [2] and in the data set with p27 [3] was “dose-dependent increase in p27 expression” in each case. In addition, the “growth inhibitory effect in combination with cytotoxic drugs” value in the data set with GEO cells is “supra-additive growth inhibitory effect”. The growth inhibition result in the data set with GEO cells (GEO cells, 0.05 μM AS23 MBO alone) is “approximately 20%”. For the same compound, the “inhibition of colony formation in soft agar” value with GEO cells (GEO cells, combined treatment 0.25 μg/ml cisplatin followed by 0.05 μM AS23 MBO (FIG. 5A)) turned out to be 70%. Moreover, the cooperativity quotient result with GEO cells (ratio of growth inhibition with cisplatin followed by AS23 MBO to the sum of growth inhibition by each agent, GEO cells) is recorded as “approximately 1.8”.
Turning to “UGCTAGGTTTCCTCCCUUUC (phosphorothioate linkages, 2'-O-methyl ribonucleosides, further chemistry not given here) [AS24]”, in the data set with EGFR, the “EGFR protein expression (Western blot)” value is “almost complete inhibition”. Besides, the “growth inhibitory effect in combination with cytotoxic drugs” value with GEO cells is “supra-additive growth inhibitory effect”.
